Tests used:
[1] = target: T1, recombinant rat mGluR2 expressed in CHO cells (Rattus norvegicus, UniProt P31421); experiment: [3H]-LY354740 binding on mGlu2 transfected CHO cell membranes (displacement binding assay); conditions: displacement of 10 nM [3H]-LY354740, membranes of CHO cells expressing rat mGlu2, room temperature, 1 hour; Ki calculated from IC50 with the Cheng and Prusoff equation
T1 construct: expressed in transfected cells; host or cells: CHO cells, stably transfected with pcD1mGR2 (pcDNA I-amp), G-418 selected; membranes used
T1 sequence (P31421 19-872): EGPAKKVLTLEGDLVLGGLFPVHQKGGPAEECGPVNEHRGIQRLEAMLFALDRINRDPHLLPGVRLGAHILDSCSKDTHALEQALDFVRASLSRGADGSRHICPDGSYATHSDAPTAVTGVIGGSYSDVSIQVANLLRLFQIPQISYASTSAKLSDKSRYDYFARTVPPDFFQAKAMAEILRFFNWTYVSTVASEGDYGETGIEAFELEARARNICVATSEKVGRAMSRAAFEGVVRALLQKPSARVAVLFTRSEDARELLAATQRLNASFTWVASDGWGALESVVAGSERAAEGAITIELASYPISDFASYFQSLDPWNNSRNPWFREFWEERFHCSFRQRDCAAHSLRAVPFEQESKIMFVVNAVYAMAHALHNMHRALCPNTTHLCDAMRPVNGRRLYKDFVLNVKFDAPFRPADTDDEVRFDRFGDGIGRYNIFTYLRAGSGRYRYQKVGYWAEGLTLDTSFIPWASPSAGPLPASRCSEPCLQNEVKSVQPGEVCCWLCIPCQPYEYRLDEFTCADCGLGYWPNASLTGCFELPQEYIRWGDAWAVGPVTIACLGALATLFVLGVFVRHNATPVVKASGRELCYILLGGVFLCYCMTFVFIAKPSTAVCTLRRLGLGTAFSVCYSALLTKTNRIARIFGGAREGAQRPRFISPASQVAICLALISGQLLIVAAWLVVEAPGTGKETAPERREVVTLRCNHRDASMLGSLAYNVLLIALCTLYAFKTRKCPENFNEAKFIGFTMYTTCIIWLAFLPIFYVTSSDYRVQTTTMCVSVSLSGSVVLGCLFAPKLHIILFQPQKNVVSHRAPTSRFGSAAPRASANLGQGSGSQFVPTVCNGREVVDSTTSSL
Excerpt: In Table I below some specific Ki values of preferred compounds of the invention are presented. These values were obtained by indirect measurement of the affinity of the compounds for the recombinant rat mGluR2 expressed in CHO cells using a displacement binding assay with 3H-LY354740.
[^3H]-LY354740 Binding on mGlu2 Transfected CHO Cell Membranes
Transfection and Cell Culture
cDNA encoding the rat mGlu2 receptor protein in pBluescript II was obtained from Prof. S. Nakanishi (Kyoto, Japan), and subcloned into the eukaryotic expression vector pcDNA I-amp from Invitrogen (NV Leek, The Netherlands). This vector construct (pcD1mGR2) was co-transfected with a psvNeo plasmid encoding the gene for neomycin resistance, into CHO cells by a modified calcium phosphate method described by Chen & Okayama (1988). The cells were maintained in Dulbecco's Modified Eagle medium with reduced L-glutamine (2 mM final concentration) and 10% dialysed foetal calf serum from Gibco BRL (Basel, Switzerland). Selection was made in the presence of G-418 (1000 ug/mL final). Clones were identified by reverse transcription of 5 μg total RNA, followed by PCR using mGlu2 receptor specific primers 5′-[…]-3′ and 5′-[…]-3′ in 60 mM Tris HCl (pH 10), 15 mM (NH4)2SO4, 2 mM MgCl2, 25 units/mL Taq Polymerase with 30 cycles annealing at 60° C. for 1 min., extention at 72° C. for 30 s, and 1 min. 95° C. denaturation.
Cells, cultured as above, were harvested and washed three times with cold PBS and frozen at −80° C. The pellet was resuspended in cold 20 mM HEPES-NaOH buffer containing 10 mM EDTA (pH 7.4), and homogenised with a polytron (Kinematica, AG, Littau, Switzerland) for 10 s at 10000 rpm. After centrifugation for 30 min. at 4° C., the pellet was washed once with the same buffer, and once with cold 20 mM HEPES-NaOH buffer containing 0.1 mM EDTA, (pH 7.4). Protein content was measured using the Pierce method (Socochim, Lausanne, Switzerland) using bovine serum albumin as standard.
After thawing, the membranes were resuspended in cold 50 mM Tris-HCl buffer containing 2 mM MgCl2 and 2 mM CaCl2, (pH 7) (binding buffer). The final concentration of the membranes in the assays was 25 μg protein/mL. Inhibition experiments were performed with membranes incubated with 10 nM [^3H]-LY354740 at room temperature, for 1 hour, in presence of various concentrations of the compound to be tested. Following the incubations, membranes were filtered onto Whatmann GF/C glass fiber filters and washed 5 times with cold binding buffer. Non specific binding was measured in the presence of 10 μM DCG IV. After transfer of the filters into plastic vials containing 10 mL of Ultima-gold scintillation fluid (Packard, Züirich, Switzerland), the radioactivity was measured by liquid scintillation in a Tri-Carb 2500 TR counter (Packard, Züirich, Switzerland).
The inhibition curves were fitted with a four parameter logistic equation giving IC50 values, and Hill coefficients and the Ki values were calculated using the Cheng and Prusoff equation (Cheng, Y. and Prusoff, W. H., Biochem. Pharmacol. 1973, 22, 3099-3108). A small Ki value expresses high affinity of the compound towards the receptor.

SMILES | melting point | Ki [1]
O=C1CC(c2cccc(-n3nncc3CO)c2)=Nc2cc(N3CCOCC3)c(C(F)(F)F)cc2N1 [Example 1, 4-[3-(5-Hydroxymethyl-[1,2,3]triazol-1-yl)-phenyl]-7-morpholin-4-yl-8-trifluoromethyl-1,3-dihydro-benzo[b][1,4]diazepin-2-one] | 200 °C | 74 nM
N#Cc1cc(C2=Nc3cc(N4CCOCC4)c(C(F)(F)F)cc3NC(=O)C2)ccn1 [Example 2, 4-(8-Morpholin-4-yl-4-oxo-7-trifluoromethyl-4,5-dihydro-3H-benzo[b][1,4]diazepin-2-yl)-pyridine-2-carbonitrile] | 220 °C | 20 nM
N#Cc1cccc(C2=Nc3cc(I)c(-n4cccc4)cc3NC(=O)C2)c1 [Example 9, 3-(8-Iodo-4-oxo-7-pyrrol-1-yl-4,5-dihydro-3H-benzo[b][1,4]diazepin-2-yl)-benzonitrile] | 215 °C | 75 nM
COc1cc2c(cc1-n1cccc1)NC(=O)CC(c1cccc(C#N)c1)=N2 [Example 17, 3-(8-Methoxy-4-oxo-7-pyrrol-1-yl-4,5-dihydro-3H-benzo[b][1,4]diazepin-2-yl)-benzonitrile] | – | 44 nM
COc1cc2c(cc1-n1cccc1C(C)(C)C)NC(=O)CC(c1cccc(C#N)c1)=N2 [Example 18, 3-[7-(2-tert.-Butyl-pyrrol-1-yl)-8-methoxy-4-oxo-4,5-dihydro-3H-benzo[b][1,4]diazepin-2-yl]-benzonitrile] | > 250 °C | 80 nM
Cn1nccc1-c1cccc(C2=Nc3cc(N4CCOCC4)c(C(F)(F)F)cc3NC(=O)C2)c1 [Example 38, 4-[3-(2-Methyl-2H-pyrazol-3-yl)-phenyl]-7-morpholin-4-yl-8-trifluoromethyl-1,3-dihydro-benzo[b][1,4]diazepin-2-one] | 211 °C | 6 nM
N#Cc1cc(C2=Nc3cc(N4CCSCC4)c(C(F)(F)F)cc3NC(=O)C2)ccn1 [Example 42, 4-(4-oxo-8-Thiomorpholin-4-yl-7-trifluoromethyl-4,5-dihydro-3H-benzo[b][1,4]diazepin-2-yl)-pyridine-2-carbonitrile] | 195 to 199 °C | 0.9 nM
CCOc1cc2c(cc1C(F)(F)F)NC(=O)CC(c1cccc(-n3nncc3CO)c1)=N2 [Example 52, 7-Ethoxy-4-[3-(5-hydroxymethyl-[1,2,3]triazol-1-yl)-phenyl]-8-trifluoromethyl-1,3-dihydro-benzo[b][1,4]diazepin-2-one] | 214 °C | 83.5 nM
O=C1CC(c2cccc(-n3ccnn3)c2)=Nc2cc(Cl)c(C(F)(F)F)cc2N1 [Example 73, 7-Chloro-4-(3-[1,2,3]triazol-1-yl-phenyl)-8-trifluoromethyl-1,3-dihydro-benzo[b][1,4]diazepin-2-one] | 219 °C | –
Cc1cc2c(cc1C(F)(F)F)NC(=O)CC(c1cccc(-n3cncn3)c1)=N2 [Example 74, 7-Methyl-4-(3-[1,2,4]triazol-1-yl-phenyl)-8-trifluoromethyl-1,3-dihydro-benzo[b][1,4]diazepin-2-one] | 241 °C | –
Cc1cc2c(cc1C(F)(F)F)NC(=O)CC(c1cccc(-n3ccnn3)c1)=N2 [Example 76, 7-Methyl-4-(3-[1,2,3]triazol-1-yl-phenyl)-8-trifluoromethyl-1,3-dihydro-benzo[b][1,4]diazepin-2-one] | 237 °C | –
Cc1cc2c(cc1C(F)(F)F)NC(=O)CC(c1cccc(-c3ncoc3C)c1)=N2 [Example 83, 7-Methyl-4-[3-(5-methyl-oxazol-4-yl)-phenyl]-8-trifluoromethyl-1,3-dihydro-benzo[b][1,4]diazepin-2-one] | 241 to 242 °C | –

Other lines, results leading:

melting point | Ki [1] | SMILES
219 °C | 35 nM | N#Cc1cccc(C2=Nc3ccc(-n4cccc4)cc3NC(=O)C2)c1 [Example 4, 3-(4-oxo-7-Pyrrol-1-yl-4,5-dihydro-3H-benzo[b][1,4]diazepin-2-yl)-benzonitrile]
– | 75 nM | N#Cc1cccc(C2=Nc3ccc(-n4ccc(-c5ccccc5)c4)cc3NC(=O)C2)c1 [Example 12, 3-[4-oxo-7-(3-Phenyl-pyrrol-1-yl)-4,5-dihydro-3H-benzo[b][1,4]diazepin-2-yl]-benzonitrile]
220 °C | 25 nM | O=C1CC(c2cccc(-n3ccnc3)c2)=Nc2ccc(-n3cccc3)cc2N1 [Example 16, 4-(3-Imidazol-1-yl-phenyl)-8-pyrrol-1-yl-1,3-dihydro-benzo[b][1,4]diazepin-2-one]
238 to 240 °C | 28 nM | O=C1CC(c2cccc(-c3nc(CO)cs3)c2)=Nc2ccc(-n3cccc3)cc2N1 [Example 20, 4-[3-(4-Hydroxymethyl-thiazol-2-yl)-phenyl]-8-pyrrol-1-yl-1,3-dihydro-benzo[b][1,4]diazepin-2-one]
206 to 209 °C | 7.5 nM | O=C1CC(c2cccc(-n3ccnn3)c2)=Nc2ccc(-n3cccc3)cc2N1 [Example 21, 8-Pyrrol-1-yl-4-(3-[1,2,3]triazol-1-yl-phenyl)-1,3-dihydro-benzo[b][1,4]diazepin-2-one]
251 to 253 °C | 23 nM | O=C1CC(c2cccc(-c3ncco3)c2)=Nc2ccc(-n3cccc3)cc2N1 [Example 22, 4-(3-Oxazol-2-yl-phenyl)-8-pyrrol-1-yl-1,3-dihydro-benzo[b][1,4]diazepin-2-one]
222 to 224 °C | 29 nM | CCOC(=O)c1ncoc1-c1cccc(C2=Nc3ccc(-n4cccc4)cc3NC(=O)C2)c1 [Example 23, 5-[3-(4-oxo-7-Pyrrol-1-yl-4,5-dihydro-3H-benzo[b][1,4]diazepin-2-yl)-phenyl]-oxazole-4-carboxylic Acid Ethyl Ester]
232 to 234 °C | 62 nM | NC(=O)c1coc(-c2cccc(C3=Nc4ccc(-n5cccc5)cc4NC(=O)C3)c2)n1 [Example 27, 2-[3-(4-oxo-7-Pyrrol-1-yl-4,5-dihydro-3H-benzo[b][1,4]diazepin-2-yl)-phenyl]-oxazole-4-carboxylic Acid Amide]
242 to 244 °C | 91 nM | O=C1CC(c2cccc(-c3nc(C(=O)NCCO)co3)c2)=Nc2ccc(-n3cccc3)cc2N1 [Example 34, 2-[3-(4-oxo-7-Pyrrol-1-yl-4,5-dihydro-3H-benzo[b][1,4]diazepin-2-yl)-phenyl]-oxazole-4-carboxylic Acid (2-Hydroxy-ethyl)-amide]
206 to 207 °C | – | CC(=O)OCc1coc(-c2cccc(C3=Nc4ccc(-n5cccc5)cc4NC(=O)C3)c2)n1 [Example 78, Acetic Acid 2-[3-(4-oxo-7-Pyrrol-1-yl-4,5-dihydro-3H-benzo[b][1,4]diazepin-2-yl)-phenyl]-oxazol-4-ylmethyl Ester]
182 to 183 °C | – | CNCc1coc(-c2cccc(C3=Nc4ccc(-n5cccc5)cc4NC(=O)C3)c2)n1 [Example 79, 4-[3-(4-Methylaminomethyl-oxazol-2-yl)-phenyl]-8-pyrrol-1-yl-1,3-dihydro-benzo[b][1,4]diazepin-2-one]
172 to 175 °C | – | CN(C)Cc1coc(-c2cccc(C3=Nc4ccc(-n5cccc5)cc4NC(=O)C3)c2)n1 [Example 80, 4-[3-(4-Dimethylaminomethyl-oxazol-2-yl)-phenyl]-8-pyrrol-1-yl-1,3-dihydro-benzo[b][1,4]diazepin-2-one]
166 to 167 °C | – | O=C1CC(c2cccc(-c3nc(CN4CCOCC4)co3)c2)=Nc2ccc(-n3cccc3)cc2N1 [Example 81, 4-[3-(4-Morpholin-4-ylmethyl-oxazol-2-yl)-phenyl]-8-pyrrol-1-yl-1,3-dihydro-benzo[b][1,4]diazepin-2-one]
243 to 244 °C | – | N#Cc1cc(C2=Nc3ccc(-n4cccc4)cc3NC(=O)C2)ccn1 [Example 82, 4-(4-oxo-7-Pyrrol-1-yl-4,5-dihydro-3H-benzo[b][1,4]diazepin-2-yl)-pyridine-2-carbonitrile]
